{"source": "patent US20220280460A1", "about": "“METHODS AND COMPOSITIONS FOR STIMULATING EXOSOME SECRETION” (UNIVERSITY OF PITTSBURGH-OF THE COMMONWEALTH SYSTEM OF …, priority 2019, published 2022)", "key": {"[1]": {"tested_on": "UMSCC47 HPV(+) head and neck cancer cells", "test": "Exosome secretion by UMSCC47 cells", "format": "cell-based", "settings": "for exosome production by UMSCC47 cells: total exosomal protein normalized to 10^6 cells", "protocol": "All cell lines were grown at 37° C. in the atmosphere of 5% CO2 in air. Cultures were supplemented with fetal bovine serum (FBS) depleted of exosomes by ultracentrifugation at 100,000×g for 3 h. Cells were cultured in 150 cm^2 cell culture flasks using 25 ml of culture medium. Media used for cell cultures are described in Table 1. Seeding protocol was optimized for each cell type as recently described in Ludwig N., et al., (Exp Cell Res. 2019; 378(2):149-57). After seeding, cells were allowed to attach to the flask for 6 h, were then treated with indicated reagents and incubated for 48 or 72 h as indicated.\nExosome isolation by mini-SEC: Processing of supernatants and exosome isolation by mini-SEC was performed as previously described in Ludwig et al. Briefly, cell culture supernatants were centrifuged at room temperature (RT) for 10 min at 2000×g, were transferred to new tubes for centrifugation at 10,000×g at 4° C. for 30 min and filtrated using a 0.22 μm bacterial filter. Afterwards, aliquots of supernatants were concentrated by using Vivacell 100 concentrators at 2000×g. 1 mL of concentrated supernatant was loaded on a 10 cm-long Sepharose 2-B column and individual 1 mL fractions were collected. Fraction #4 containing non-aggregated exosomes was used in subsequent assays. The established isolation technique fulfils the criteria of the MISEV2018 guidelines and therefore the term ‘exosomes’ is used.\nProtein concentration: Protein concentrations were determined by using a BCA protein assay (Pierce Biotechnology, Rockford, Ill., USA) according to the manufacturer's instructions.\nTunable resistive pulse sensing (TRPS): Size distribution and concentrations of the particles in isolated exosome fractions were analyzed using tunable-resistive pulse sensing (TRPS) by qNano (Izon) as described in Ludwig N, et al., Mol Cancer Res. 2018; 16(11):1798-808."}, "[2]": {"tested_on": "Preglomerular vascular smooth muscle cells (PGVSMCs)", "test": "Exosome production by PGVSMCs from CNPase +/+ and −/− rats", "format": "cell-based, rat", "settings": "8-Br-2′,3′-cAMP 0.3 μM; IAA/DNP 5 μM", "text": "Isolation of rat CNPASE +/+ and −/− PGVSMCs: 2′,3′-Cyclic nucleotide 3′-phosphodiesterase (CNPase) knockout rats used in this example were generated by the MCW Gene Editing Rat Resource Program. This strain was produced by injecting a CRISPR targeting the sequence […] into rat embryos. The resulting mutation was a 7 base pair deletion in exon 2. Animals were genotyped by PCR. Preglomerular vascular smooth muscle cells (PGVSMCs) were isolated from kidneys of wild type (CNPase +/+) and knockout (CNPase −/−) rats using a previously described method. Cells were cultured at 37° C. in the atmosphere of 5% CO2 in air using DMEM supplemented with exosome-depleted FBS. Exosome isolation was performed as described above."}}, "data": [{"compound": "Nc1ncnc2c1ncn2[C@@H]1O[C@H](CO)[C@@H](OP(=O)(O)O)[C@H]1O", "note": "[3′-AMP]", "values": [{"measurement": "exosome production by UMSCC47 cells", "setting": "[1]", "result": "significantly stimulated exosome release"}]}, {"compound": "Nc1ncnc2c1ncn2[C@@H]1O[C@H](CO)[C@@H](O)[C@H]1OP(=O)(O)O", "note": "[2′-AMP]", "values": [{"measurement": "exosome production by UMSCC47 cells", "setting": "[1]", "result": "did not affect exosome secretion"}]}, {"compound": "CCCn1c(=O)c2[nH]c(-c3ccc(OCC(=O)Nc4ccc(C#N)cc4)cc3)nc2n(CCC)c1=O", "note": "[MRS 1754]", "values": [{"measurement": "effect on stimulation of exosome production by IAA/DNP", "setting": "[1]; UMSCC47, in combination with IAA/DNP", "result": "significantly decreased"}]}, {"compound": "Nc1ncnc2c1ncn2[C@@H]1O[C@H](CO)[C@H]2OP(=O)(O)O[C@H]21", "note": "[2′,3′-cAMP]", "values": [{"measurement": "exosome production by UMSCC47 cells", "setting": "[1]", "result": "stimulated exosome production, but only at high concentrations"}]}, {"compound": "Nc1ncnc2c1nc(Br)n2C1OC(CO)C2OP(=O)(O)OC21", "note": "(stereo not drawn) [8-Br-2′,3′-cAMP]", "values": [{"measurement": "exosome production by UMSCC47 cells", "setting": "[1]", "result": "concentration-dependent increase in exosome secretion"}, {"measurement": "stimulation of exosome production, CNPase −/− versus CNPase +/+ PGVSMCs", "setting": "[2]", "result": "greater in CNPase −/− compared with CNPase +/+ cells"}]}]}
